# Laboratory results from ChEMBL document CHEMBL6103550, “Pyrazolo-1-carbothioamides as EGR-1-DNA binding disruptors” (Bioorg Med Chem Lett, 2025).
# Target: Early growth response protein 1 (Homo sapiens) (UniProt P18146)
# Assay: Disruption of EGR-1-DNA binding in TNF-alpha-stimulated human HaCaT cells assessed as decrease in TSLP mRNA level in presence of TNF-alpha by RT-PCR analysis
# Assay type: cell-based
# Conditions: dose 10-20 µM
# Chain of Early growth response protein 1 (Homo sapiens) (P18146 whole entry, looked up): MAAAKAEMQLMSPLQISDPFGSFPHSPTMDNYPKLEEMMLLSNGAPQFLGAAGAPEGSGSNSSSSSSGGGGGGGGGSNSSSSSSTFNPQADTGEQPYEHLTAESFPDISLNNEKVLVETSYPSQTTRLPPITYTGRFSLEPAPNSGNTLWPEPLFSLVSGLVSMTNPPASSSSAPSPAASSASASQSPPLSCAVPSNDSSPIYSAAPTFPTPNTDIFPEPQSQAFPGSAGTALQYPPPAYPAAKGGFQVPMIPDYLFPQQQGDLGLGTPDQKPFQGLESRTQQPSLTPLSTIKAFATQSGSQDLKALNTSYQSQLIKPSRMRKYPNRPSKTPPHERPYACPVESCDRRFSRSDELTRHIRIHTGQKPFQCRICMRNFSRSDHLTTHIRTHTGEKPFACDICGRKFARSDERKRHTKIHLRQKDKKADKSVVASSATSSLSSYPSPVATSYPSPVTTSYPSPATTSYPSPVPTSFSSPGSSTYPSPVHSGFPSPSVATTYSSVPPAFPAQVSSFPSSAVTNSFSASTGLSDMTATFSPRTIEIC
row,Activity,Structure (SMILES)
1,Dose-dependent-effect,COc1ccc(NC(=S)N2N=C(c3ccc4ccccc4c3O)CC2c2c(OC)cc(OC)cc2OC)c(OC)c1 (racemic)

# Target: Early growth response protein 1 (Homo sapiens) (UniProt P18146)
# Assay: Disruption of EGR-1-DNA binding in TNF-alpha-stimulated human HaCaT cells assessed as decrease in IL-31 mRNA level in presence of TNF-alpha by RT-PCR analysis
# Assay type: cell-based
# Conditions: dose 10-20 µM
row,Activity,Structure (SMILES)
1,Dose-dependent-effect,COc1ccc(NC(=S)N2N=C(c3ccc4ccccc4c3O)CC2c2c(OC)cc(OC)cc2OC)c(OC)c1 (racemic)

# Target: Early growth response protein 1 (Homo sapiens) (UniProt P18146)
# Assay: Disruption of EGR-1-DNA binding in human HaCaT cell nuclear extract at 50 uM in the presence of biotin-EBS oligonucleotide probe (5'-CAAAAAGGAGGAAGGTGAGGGAA-biotin-3') and poly(dI-dC) by EMSA analysis relative to control
# Assay type: subcellular
# Conditions: not given
row,Activity,Structure (SMILES)
1,64.2%,COc1ccc(NC(=S)N2N=C(c3ccc4ccccc4c3O)CC2c2c(OC)cc(OC)cc2OC)cc1 (stereo not given)
2,38.2%,COc1cc(O)c(C2=NN(C(=S)Nc3cc(OC)c(OC)c(OC)c3)C(c3cccc4ccccc34)C2)c(OC)c1 (stereo not given)
3,28%,COc1ccc(NC(=S)N2N=C(c3cc(OC)ccc3O)CC2c2ccc(OC)c3ccccc23)cc1 (stereo not given)
4,55.5%,COc1cccc(NC(=S)N2N=C(c3ccc4ccccc4c3O)CC2c2cc(OC)c(OC)cc2OC)c1 (stereo not given)
5,53.6%,COc1cc(O)c(C2=NN(C(=S)Nc3ccccc3)C(c3cccc4ccccc34)C2)cc1OC (stereo not given)
6,16.5%,COc1cccc(NC(=S)N2N=C(c3ccc4ccccc4c3O)CC2c2cccc(OC)c2)c1 (stereo not given)
7,35.1%,COc1ccc(NC(=S)N2N=C(c3ccc(OC)cc3O)CC2c2cccc3ccccc23)cc1 (stereo not given)
8,44.8%,COc1cccc(NC(=S)N2N=C(c3ccc4ccccc4c3O)CC2c2ccccc2OC)c1 (stereo not given)
9,56.5%,COc1ccc(NC(=S)N2N=C(c3ccc4ccccc4c3O)CC2c2cc(OC)c(OC)cc2OC)c(OC)c1 (stereo not given)
10,21.8%,COc1ccc(O)c(C2=NN(C(=S)Nc3ccccc3OC)C(c3ccc(OC)c4ccccc34)C2)c1 (stereo not given)
11,53.3%,COc1cccc(NC(=S)N2N=C(c3c(O)cc(OC)cc3OC)CC2c2cccc3ccccc23)c1 (stereo not given)
12,46.5%,COc1ccccc1NC(=S)N1N=C(c2ccc3ccccc3c2O)CC1c1ccc(OC)c(OC)c1OC (stereo not given)
13,40.8%,COc1cc(OC)cc(C2CC(c3ccc4ccccc4c3O)=NN2C(=S)Nc2ccccc2OC)c1 (stereo not given)
14,66.7%,COc1ccc(NC(=S)N2N=C(c3c(O)cccc3OC)CC2c2ccc(OC)c3ccccc23)cc1 (stereo not given)
15,49.5%,COc1ccc(NC(=S)N2N=C(c3ccc4ccccc4c3O)CC2c2ccc(OC)c(OC)c2OC)cc1 (stereo not given)
16,22.7%,COc1ccc(C2CC(c3ccccc3O)=NN2C(=S)Nc2ccccc2)c2ccccc12 (stereo not given)
17,31.2%,COc1ccc(NC(=S)N2N=C(c3ccc4ccccc4c3O)CC2c2ccccc2OC)cc1 (stereo not given)
18,17.1%,COc1cccc(NC(=S)N2N=C(c3ccccc3O)CC2c2ccc(OC)c3ccccc23)c1 (stereo not given)
19,67.8%,COc1ccc(NC(=S)N2N=C(c3ccc4ccccc4c3O)CC2c2cccc(OC)c2OC)c(OC)c1 (stereo not given)
20,22.9%,COc1ccccc1NC(=S)N1N=C(c2c(O)ccc3ccccc23)CC1c1ccccc1OC (stereo not given)
21,35.1%,COc1ccc(C2=NN(C(=S)Nc3ccccc3)C(c3cccc4ccccc34)C2)c(O)c1 (stereo not given)
22,56.4%,COc1cccc(NC(=S)N2N=C(c3ccc(OC)cc3O)CC2c2ccc(OC)c3ccccc23)c1 (stereo not given)
23,74.4%,COc1ccc(NC(=S)N2N=C(c3ccc(OC)cc3O)CC2c2ccc(OC)c3ccccc23)cc1 (stereo not given)

row,Activity,Structure (SMILES)
1,71.8%,COc1cc(NC(=S)N2N=C(c3c(O)cccc3OC)CC2c2ccc(OC)c3ccccc23)cc(OC)c1OC (stereo not given)
2,57.3%,COc1ccc(NC(=S)N2N=C(c3cc(OC)c(OC)cc3O)CC2c2ccc(OC)c3ccccc23)cc1 (stereo not given)
3,33.2%,COc1ccccc1NC(=S)N1N=C(c2ccc3ccccc3c2O)CC1c1ccccc1OC (stereo not given)
4,53.3%,COc1ccccc1NC(=S)N1N=C(c2cc(OC)c(OC)cc2O)CC1c1cccc2ccccc12 (stereo not given)
5,42.8%,COc1cccc(NC(=S)N2N=C(c3ccc4ccccc4c3O)CC2c2cc(OC)cc(OC)c2)c1 (stereo not given)
6,36.5%,COc1ccc(/C=C/c2cc(OC)cc(OC)c2-c2oc3ccc([N+](=O)[O-])cc3c(=O)c2O)cc1
7,64%,COc1cccc(O)c1C1=NN(C(=S)Nc2ccccc2)C(c2ccc(OC)c3ccccc23)C1 (stereo not given)
8,46%,COc1ccc(C2CC(c3ccc4ccccc4c3O)=NN2C(=S)Nc2ccccc2OC)c(OC)c1 (stereo not given)
9,54%,COc1ccc(NC(=S)N2N=C(c3c(O)cccc3OC)CC2c2cccc3ccccc23)cc1 (stereo not given)
10,81.8%,COc1cc(OC)c(C2CC(c3ccc4ccccc4c3O)=NN2C(=S)Nc2ccccc2)cc1OC (stereo not given)
11,62.7%,COc1cccc(NC(=S)N2N=C(c3c(O)cccc3OC)CC2c2ccc(OC)c3ccccc23)c1 (stereo not given)
12,36.4%,COc1cccc(NC(=S)N2N=C(c3c(O)cccc3OC)CC2c2cccc3ccccc23)c1 (stereo not given)
13,68.8%,COc1ccccc1NC(=S)N1N=C(c2ccc3ccccc3c2O)CC1c1cc(OC)c(OC)cc1OC (stereo not given)
14,44.5%,COc1ccc(NC(=S)N2N=C(c3ccc4ccccc4c3O)CC2c2ccc(OC)cc2OC)cc1 (stereo not given)
15,67.5%,COc1cc(OC)cc(C2CC(c3ccc4ccccc4c3O)=NN2C(=S)Nc2cc(OC)c(OC)c(OC)c2)c1 (stereo not given)
16,48%,COc1cccc(NC(=S)N2N=C(c3ccc4ccccc4c3O)CC2c2ccc(OC)cc2OC)c1 (stereo not given)
17,59%,COc1cc(OC)cc(C2CC(c3ccc4ccccc4c3O)=NN2C(=S)Nc2ccccc2)c1 (stereo not given)
18,52.8%,COc1ccc(C2CC(c3ccc4ccccc4c3O)=NN2C(=S)Nc2ccccc2)cc1 (stereo not given)
19,70.7%,COc1cc(O)c(C2=NN(C(=S)Nc3ccccc3OC)C(c3ccc(OC)c4ccccc34)C2)c(OC)c1 (stereo not given)
20,73.3%,COc1cc(O)c(C2=NN(C(=S)Nc3ccccc3)C(c3ccc(OC)c4ccccc34)C2)c(OC)c1 (stereo not given)
21,67.3%,COc1ccccc1NC(=S)N1N=C(c2c(O)cccc2OC)CC1c1ccc(OC)c2ccccc12 (stereo not given)
22,59.1%,COc1cc(O)c(C2=NN(C(=S)Nc3cc(OC)c(OC)c(OC)c3)C(c3ccc(OC)c4ccccc34)C2)cc1OC (stereo not given)
23,29.1%,COc1ccccc1NC(=S)N1N=C(c2ccccc2O)CC1c1ccc(OC)c2ccccc12 (stereo not given)

row,Activity,Structure (SMILES)
1,36.4%,COc1cccc(NC(=S)N2N=C(c3cc(OC)c(OC)cc3O)CC2c2cccc3ccccc23)c1 (stereo not given)
2,27%,COc1cccc(C2CC(c3ccc4ccccc4c3O)=NN2C(=S)Nc2ccc(OC)cc2OC)c1 (stereo not given)
3,38%,COc1cccc(NC(=S)N2N=C(c3ccc4ccccc4c3O)CC2c2ccc(OC)c(OC)c2OC)c1 (stereo not given)
4,42.4%,COc1cc(O)c(C2=NN(C(=S)Nc3cc(OC)c(OC)c(OC)c3)C(c3cccc4ccccc34)C2)cc1OC (stereo not given)
5,31.8%,COc1ccc(NC(=S)N2N=C(c3c(O)ccc4ccccc34)CC2c2ccccc2OC)cc1 (stereo not given)
6,30.8%,COc1cccc(C2CC(c3ccc4ccccc4c3O)=NN2C(=S)Nc2cc(OC)c(OC)c(OC)c2)c1 (stereo not given)
7,44%,COc1ccc(C2CC(c3ccc4ccccc4c3O)=NN2C(=S)Nc2ccccc2)c(OC)c1OC (stereo not given)
8,57.3%,COc1ccc(C2=NN(C(=S)Nc3ccccc3OC)C(c3ccc(OC)c4ccccc34)C2)c(O)c1 (stereo not given)
9,35.6%,COc1cc(NC(=S)N2N=C(c3ccc4ccccc4c3O)CC2c2cccc(OC)c2OC)cc(OC)c1OC (stereo not given)
10,64.8%,COc1cccc(NC(=S)N2N=C(c3ccc4ccccc4c3O)CC2c2c(OC)cc(OC)cc2OC)c1 (stereo not given)
11,46.9%,COc1ccc(NC(=S)N2N=C(c3cc(OC)c(OC)cc3O)CC2c2cccc3ccccc23)cc1 (stereo not given)
12,60.2%,COc1ccc(NC(=S)N2N=C(c3ccc4ccccc4c3O)CC2c2ccc(OC)cc2OC)c(OC)c1 (stereo not given)
13,56.7%,COc1cccc(NC(=S)N2N=C(c3c(O)cc(OC)cc3OC)CC2c2ccc(OC)c3ccccc23)c1 (stereo not given)
14,82.2%,COc1ccc(NC(=S)N2N=C(c3ccc4ccccc4c3O)CC2c2c(OC)cc(OC)cc2OC)c(OC)c1 (racemic)
15,71.3%,COc1cc(O)c(C2=NN(C(=S)Nc3ccccc3OC)C(c3cccc4ccccc34)C2)c(OC)c1 (stereo not given)
16,40.9%,COc1ccccc1NC(=S)N1N=C(c2c(O)cccc2OC)CC1c1cccc2ccccc12 (stereo not given)
17,27%,COc1ccc(NC(=S)N2N=C(c3ccc4ccccc4c3O)CC2c2cccc(OC)c2OC)cc1 (stereo not given)
18,51.6%,COc1cc(NC(=S)N2N=C(c3c(O)cccc3OC)CC2c2cccc3ccccc23)cc(OC)c1OC (stereo not given)
19,69%,COc1ccc(NC(=S)N2N=C(c3ccc4ccccc4c3O)CC2c2cc(OC)c(OC)cc2OC)cc1 (stereo not given)
20,32%,COc1cccc(NC(=S)N2N=C(c3ccc(OC)cc3O)CC2c2cccc3ccccc23)c1 (stereo not given)
21,73.3%,COc1ccc(C2=NN(C(=S)Nc3cc(OC)c(OC)c(OC)c3)C(c3ccc(OC)c4ccccc34)C2)c(O)c1 (stereo not given)
22,46.8%,COc1ccc(NC(=S)N2N=C(c3ccc4ccccc4c3O)CC2c2ccc(OC)c(OC)c2OC)c(OC)c1 (stereo not given)
23,64.2%,COc1ccc(C2CC(c3ccc4ccccc4c3O)=NN2C(=S)Nc2ccc(OC)cc2OC)cc1 (stereo not given)

row,Structure (SMILES),Activity
1,COc1ccc(C2CC(c3ccc4ccccc4c3O)=NN2C(=S)Nc2cc(OC)c(OC)c(OO)c2)cc1 (stereo not given),70.5%

# Target: Early growth response protein 1 (Homo sapiens) (UniProt P18146)
# Assay: Disruption of EGR-1-DNA binding in TNF-alpha-stimulated human HaCaT cells assessed as decrease in CCL-2 mRNA level in presence of TNF-alpha by RT-PCR analysis
# Assay type: cell-based
# Conditions: dose 10-20 µM
row,Activity,Structure (SMILES)
1,Dose-dependent-effect,COc1ccc(NC(=S)N2N=C(c3ccc4ccccc4c3O)CC2c2c(OC)cc(OC)cc2OC)c(OC)c1 (racemic)

# Target: Early growth response protein 1 (Homo sapiens) (UniProt P18146)
# Assay: Disruption of EGR-1-DNA binding in TNF-alpha-stimulated human HaCaT cells assessed as decrease in IL-6 mRNA level in presence of TNF-alpha by RT-PCR analysis
# Assay type: cell-based
# Conditions: dose 10-20 µM
row,Activity,Structure (SMILES)
1,Dose-dependent-effect,COc1ccc(NC(=S)N2N=C(c3ccc4ccccc4c3O)CC2c2c(OC)cc(OC)cc2OC)c(OC)c1 (racemic)

# Target: Early growth response protein 1 (Homo sapiens) (UniProt P18146)
# Assay: Disruption of EGR-1-DNA binding in TNF-alpha-stimulated human HaCaT cell nuclear extract assessed as reduction in DNA-protein complex formation pretreated for 1 hr followed by incubation of nuclear extract with biotin-EBS oligonucleotide probe (5'-CAAAAAGGAGGAAGGTGAGGGAA-biotin-3') by EMSA analysis
# Assay type: subcellular
# Conditions: Nucleus, dose 10-20 µM
row,Activity,Structure (SMILES)
1,Dose-dependent-effect,COc1ccc(NC(=S)N2N=C(c3ccc4ccccc4c3O)CC2c2c(OC)cc(OC)cc2OC)c(OC)c1 (racemic)
